In assay [1] the test system is Staphylococcus saprophyticus. The assay can be described thus: Antibacterial activity against Staphylococcus saprophyticus ATCC 15305 after 24 hrs. The conditions noted are these: ATCC 15305, 24 h. It is filed as functional.
For assay [2], the system named is Enterococcus faecalis. The assay can be described thus: Antibacterial activity against vancomycin-resistant Enterococcus faecalis isolate 1002 after 24 hrs. It counts as functional. The settings on record: isolate 1002, 24 h.
The subject of assay [3] is Enterococcus faecalis. The assay can be described thus: Antibacterial activity against vancomycin-resistant Enterococcus faecalis isolate 1004 after 24 hrs. It counts as functional. The settings on record: isolate 1004, 24 h.
Assay [4] has as its system Bacillus subtilis (Bacillus subtilis). The assay can be described thus: Antibacterial activity against Bacillus subtilis ATCC 6633 after 24 hrs. The conditions noted are these: ATCC 6633, 24 h.
Assay [5] concerns Enterococcus faecalis. Nature of the assay: Antibacterial activity against vancomycin-resistant Enterococcus faecalis isolate 1008 after 24 hrs. It is filed as functional. The conditions noted are these: isolate 1008, 24 h.
For assay [6], the system named is Staphylococcus aureus. Nature of the assay: Antibacterial activity against methicillin-resistant Staphylococcus aureus ATCC 33591 after 24 hrs. It counts as functional. The conditions noted are these: ATCC 33591, 24 h.
Assay [7] deals with Bacillus cereus. Nature of the assay: Antibacterial activity against Bacillus cereus ATCC 11788 after 24 hrs. It counts as functional. The conditions noted are these: ATCC 11788, 24 h.
For assay [8], the system named is Enterococcus faecalis. The assay can be described thus: Antibacterial activity against vancomycin-resistant Enterococcus faecalis ATCC 700802 after 24 hrs. It counts as functional. The conditions noted are these: ATCC 700802, 24 h.
The subject of assay [9] is Staphylococcus aureus. Nature of the assay: Antibacterial activity against Staphylococcus aureus ATCC 29213 after 24 hrs. It is filed as functional. The conditions noted are these: ATCC 29213, 24 h.
The test system of assay [10] is Staphylococcus saprophyticus. Nature of the assay: Antibacterial activity against Staphylococcus saprophyticus ATCC 49453 after 24 hrs. The settings on record: ATCC 49453, 24 h. It is filed as functional.
Assay [11] deals with Enterococcus faecalis. The assay can be described thus: Antibacterial activity against vancomycin-resistant Enterococcus faecalis isolate 1001 after 24 hrs. It is filed as functional. The settings on record: isolate 1001, 24 h.
The subject of assay [12] is Staphylococcus aureus. The assay can be described thus: Antibacterial activity against Staphylococcus aureus 4299 after 24 hrs. It counts as functional. The conditions noted are these: Staphylococcus aureus, 4299, 24 h.
Assay [13] has as its system Staphylococcus aureus. Nature of the assay: Antibacterial activity against methicillin-resistant Staphylococcus aureus ATCC 700699 after 24 hrs. It counts as functional. The settings on record: ATCC 700699, 24 h.
In assay [14] the test system is Staphylococcus aureus. Nature of the assay: Antibacterial activity against methicillin-resistant Staphylococcus aureus isolate 42412 after 24 hrs. The conditions noted are these: isolate 42412, 24 h. It counts as functional.
Assay [15] concerns Staphylococcus saprophyticus. Nature of the assay: Antibacterial activity against Staphylococcus saprophyticus ATCC BAA 750 after 24 hrs. It is filed as functional. The conditions noted are these: ATCC BAA 750, 24 h.
Assay [16] relates to Staphylococcus epidermidis. The assay can be described thus: Antibacterial activity against Staphylococcus epidermidis 12228 after 24 hrs. It is filed as functional. The settings on record: Staphylococcus epidermidis, 12228, 24 h.
The test system of assay [17] is Staphylococcus aureus. The assay can be described thus: Antibacterial activity against methicillin-resistant Staphylococcus aureus isolate 21455 after 24 hrs. The conditions noted are these: isolate 21455, 24 h. It counts as functional.
Assay [18] relates to Enterococcus faecalis. Nature of the assay: Antibacterial activity against vancomycin-resistant Enterococcus faecalis ATCC 29212 after 24 hrs. It counts as functional. The settings on record: ATCC 29212, 24 h.
The test system of assay [19] is Staphylococcus saprophyticus. The assay can be described thus: Antibacterial activity against Staphylococcus saprophyticus ATCC 49907 after 24 hrs. The conditions noted are these: ATCC 49907, 24 h. It is filed as functional.
The subject of assay [20] is Staphylococcus aureus. Nature of the assay: Antibacterial activity against methicillin-resistant Staphylococcus aureus isolate 1003 after 24 hrs. The settings on record: isolate 1003, 24 h. It is filed as functional.

In brackets after ≈: the same amount, converted by molar mass. Some results are limits rather than exact numbers.

On to `CC[C@@H](C)[C@@H](NC(=O)[C@@H](CCCNC(=N)N)NC(=O)[C@H](CO)NC(=O)[C@@H](NC(=O)[C@@H](Cc1ccccc1)NC)[C@@H](C)CC)C(=O)N[C@H](C(=O)N[C@@H](CO)C(=O)N[C@H]1C(=O)N[C@@H](C)C(=O)N[C@@H]([C@@H](C)CC)C(=O)N[C@@H]([C@@H](C)CC)C(=O)O[C@H]1C)[C@@H](C)CC`, for which the minimum inhibitory concentration (MIC) was under 0.0625 µg/mL in assay [1]; 1 µg/mL (≈ 0.813 µM) in [2]; 0.5 µg/mL (≈ 0.407 µM) in [3]; under 0.0625 µg/mL in assay [4]; 0.5 µg/mL (≈ 0.407 µM) in [5]; 0.125 µg/mL (≈ 0.102 µM) in assay [6]. In addition, the MIC in assay [7] was under 0.0625 µg/mL; in [8] it was 0.25 µg/mL (≈ 0.203 µM); in [9], 0.0625 µg/mL (≈ 0.0508 µM); in [10] it was under 0.0625 µg/mL; in assay [11] it was 0.5 µg/mL (≈ 0.407 µM); in [12], under 0.0625 µg/mL. Further, the MIC in assay [13] was 0.25 µg/mL (≈ 0.203 µM); in assay [14] it was under 0.0625 µg/mL; in assay [15], under 0.0625 µg/mL; in assay [16], under 0.0625 µg/mL; in [17], 0.0312 µg/mL (≈ 0.0254 µM); in assay [18], 0.25 µg/mL (≈ 0.203 µM). Moreover, the MIC in [19] and in assay [20] was under 0.0625 µg/mL each time.
In the case of `CC[C@@H](C)[C@@H](NC(=O)[C@@H](CCC(N)=O)NC(=O)[C@H](CO)NC(=O)[C@@H](NC(=O)[C@@H](Cc1ccccc1)NC)[C@@H](C)CC)C(=O)N[C@H](C(=O)N[C@@H](CO)C(=O)N[C@H]1C(=O)N[C@@H](CCCNC(=N)N)C(=O)N[C@@H]([C@@H](C)CC)C(=O)N[C@@H]([C@@H](C)CC)C(=O)O[C@H]1C)[C@@H](C)CC`, the minimal inhibitory concentration (MIC) in assay [1] is under 0.0625 µg/mL; in assay [2] it was 1 µg/mL (≈ 0.777 µM); in assay [3], 1 µg/mL (≈ 0.777 µM); in assay [4] it was 0.125 µg/mL (≈ 0.0972 µM); in assay [5], 1 µg/mL (≈ 0.777 µM); in [6] it was 0.25 µg/mL (≈ 0.194 µM). Besides, the MIC in [7] was 0.5 µg/mL (≈ 0.389 µM); in [8], 1 µg/mL (≈ 0.777 µM); in assay [9], 1 µg/mL (≈ 0.777 µM); in assay [10], under 0.0625 µg/mL; in assay [11] it was 1 µg/mL (≈ 0.777 µM); in assay [12], 1 µg/mL (≈ 0.777 µM). Moreover, the MIC was 1 µg/mL (≈ 0.777 µM) in [13]; 0.125 µg/mL (≈ 0.0972 µM) in [14]; under 0.0625 µg/mL in assay [15]; under 0.0625 µg/mL in assay [16]; 0.5 µg/mL (≈ 0.389 µM) in assay [17]; 1 µg/mL (≈ 0.777 µM) in assay [18]. The MIC in [19] is under 0.0625 µg/mL; in [20], 0.5 µg/mL (≈ 0.389 µM).
As for `CC[C@@H](C)[C@@H](NC(=O)[C@@H](CCC(N)=O)NC(=O)[C@H](CCCNC(=N)N)NC(=O)[C@@H](NC(=O)[C@@H](Cc1ccccc1)NC)[C@@H](C)CC)C(=O)N[C@H](C(=O)N[C@@H](CO)C(=O)N[C@H]1C(=O)N[C@@H](C)C(=O)N[C@@H]([C@@H](C)CC)C(=O)N[C@@H]([C@@H](C)CC)C(=O)O[C@H]1C)[C@@H](C)CC`, the MIC in [1] was under 0.0625 µg/mL; in [2], 1 µg/mL (≈ 0.787 µM); in [3] it was 1 µg/mL (≈ 0.787 µM); in assay [4], under 0.0625 µg/mL; in [5], 1 µg/mL (≈ 0.787 µM); in assay [6] it was 0.25 µg/mL (≈ 0.197 µM). Also, the MIC in assay [7] is 0.125 µg/mL (≈ 0.0984 µM); in [8], 1 µg/mL (≈ 0.787 µM); in [9], 0.5 µg/mL (≈ 0.394 µM); in assay [10] it was under 0.0625 µg/mL; in assay [11], 1 µg/mL (≈ 0.787 µM); in [12] it was 0.125 µg/mL (≈ 0.0984 µM). The MIC in [13] is 1 µg/mL (≈ 0.787 µM); in assay [14], 0.125 µg/mL (≈ 0.0984 µM); in assay [15], under 0.0625 µg/mL; in assay [16], under 0.0625 µg/mL; in assay [17], 0.25 µg/mL (≈ 0.197 µM); in assay [18], 1 µg/mL (≈ 0.787 µM). For the same molecule, the MIC in [19] is under 0.0625 µg/mL; in [20], 0.125 µg/mL (≈ 0.0984 µM).

One may read the MIC as the smallest concentration in the dilution series that meets the test's criterion for growth inhibition. Low values mean inhibition by little substance, high ones a need for much substance.
